Data: patent US8071531B2, “Flavor and fragrance composition” (Takasgo International Corporation, priority 2006, dated 2011)

Assay: Oral sensory evaluation of an aqueous solution by seven expert panelists
Type: in vivo
Experimental: Oral evaluation of an aqueous solution of (1R,2R,4R)-1-(2-hydroxy-4-methylcyclohexyl)ethanone obtained in Synthesis Example 1 was carried out by seven expert panelists.

CC(=O)[C@@H]1CC[C@@H](C)C[C@H]1O [(1R,2R,4R)-1-(2-hydroxy-4-methylcyclohexyl)ethanone]
appearance of refreshing feeling and taste (aqueous solution, oral evaluation): relatively rapid with clear refreshing feeling without unpleasant taste
Cool and refreshing feeling of the aqueous solution, equivalent concentration of menthol (at a concentration of 50 ppm in aqueous solution): 10 ppm
